We go through 15 compounds from ChEMBL document CHEMBL1201862, “PubChem BioAssay data set” (2004).

For assay [1], the target named is T1, Oxysterols receptor LXR-beta (Homo sapiens, UniProt P55055).
T1 sequence (P55055 whole entry): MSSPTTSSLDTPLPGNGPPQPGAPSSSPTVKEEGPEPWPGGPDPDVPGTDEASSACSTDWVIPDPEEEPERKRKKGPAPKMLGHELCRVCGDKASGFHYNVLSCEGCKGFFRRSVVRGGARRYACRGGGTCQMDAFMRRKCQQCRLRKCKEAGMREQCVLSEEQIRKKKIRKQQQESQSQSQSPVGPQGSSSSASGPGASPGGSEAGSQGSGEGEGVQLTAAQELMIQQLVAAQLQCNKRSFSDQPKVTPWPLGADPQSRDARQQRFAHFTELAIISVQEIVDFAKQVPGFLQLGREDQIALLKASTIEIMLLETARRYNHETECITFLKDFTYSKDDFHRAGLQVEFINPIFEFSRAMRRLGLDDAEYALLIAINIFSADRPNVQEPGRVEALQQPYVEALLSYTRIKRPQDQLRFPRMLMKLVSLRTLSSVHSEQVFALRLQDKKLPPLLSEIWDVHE
The format is functional, cell-based.

Assay [2] is described as follows: Late-stage results from the probe development effort to identify antagonists of arginine vasopressin receptor 1a (AVPR1a): fluorescence-based cell-based dose response AVPR1a inhibition assay. It counts as functional.
The target of a further assay is Vasopressin V1b receptor (Homo sapiens, UniProt P47901). The assay is described as follows: Late-stage results from the probe development effort to identify antagonists of arginine vasopressin receptor 1a (AVPR1a): fluorescence-based cell-based dose response AVPR1b inhibition counterscreen assay. It counts as functional. (The purpose of a counterscreen is to sort out artefacts and off-target activity.)

For a further assay, the target named is Vasopressin V2 receptor (Homo sapiens, UniProt P30518). The assay is described as follows: Late-stage results from the probe development effort to identify antagonists of arginine vasopressin receptor 1a (AVPR1a): fluorescence-based cell-based dose response AVPR2 inhibition counterscreen assay. The format is functional.
The nature of assay [3]: Late-stage results from the probe development effort to identify antagonists of arginine vasopressin receptor 1a (AVPR1a): fluorescence-based cell-based dose response OXTR inhibition counterscreen assay. The format is functional.
Assay [4] can be described thus: cells. The format is functional, cell-based.
The nature of assay [5]: cells. The format is functional, cell-based. The source holds these as a separate data set.
The target of the next assay is Paired box protein Pax-8 (Homo sapiens, UniProt Q06710). The experiment in a line: inhibitors of PAX8-driven TPO luciferase reporter, dose response, RMG-I cells, cherry-pick (AID 687027).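 Note: luciferase reporter driven by Pax8 target thyroperoxidase promoter measured by SteadyGlo luminescence.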 It counts as functional, cell-based. Background: In a reporter assay the amount or activity of a reporter protein is the signal.
Assay [6] can be described thus: A2780 ovarian cancer cell cytotoxicity, dose response, cytotoxicity control, plate reader, dry powder samples (AID 743046). It counts as functional, cell-based.
Assay [7] in a line: NIH:OVCAR-3 ovarian cancer cell cytotoxicity, dose response, PAX8 inhibitor project, plate reader, dry powder samples (AID 743044). The format is functional, cell-based.
Assay [8] in a line: cytotoxicity in OVCAR8 ovarian cancer cells, dose response, PAX8 project, cell-based, plate reader, dry powder samples (AID 743197). It counts as functional. The conditions noted are these: OVCAR-8.
For assay [9], the target named is T2, Corticotropin-releasing factor receptor 2/Corticotropin-releasing factor-binding protein (Homo sapiens, UniProt P24387+Q13324).
T2 sequence (Q13324 whole entry): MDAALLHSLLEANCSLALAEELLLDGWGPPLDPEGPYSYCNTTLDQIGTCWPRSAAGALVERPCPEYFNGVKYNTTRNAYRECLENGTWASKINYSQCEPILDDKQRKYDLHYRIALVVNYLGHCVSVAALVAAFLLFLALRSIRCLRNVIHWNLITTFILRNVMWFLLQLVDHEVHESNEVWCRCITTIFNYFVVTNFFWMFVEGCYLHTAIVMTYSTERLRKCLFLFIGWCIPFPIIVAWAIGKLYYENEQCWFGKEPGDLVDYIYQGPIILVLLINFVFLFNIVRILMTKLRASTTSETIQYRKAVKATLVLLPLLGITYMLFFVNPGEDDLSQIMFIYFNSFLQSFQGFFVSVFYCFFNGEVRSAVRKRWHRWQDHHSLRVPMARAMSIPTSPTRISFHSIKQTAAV
T2 sequence (P24387 whole entry): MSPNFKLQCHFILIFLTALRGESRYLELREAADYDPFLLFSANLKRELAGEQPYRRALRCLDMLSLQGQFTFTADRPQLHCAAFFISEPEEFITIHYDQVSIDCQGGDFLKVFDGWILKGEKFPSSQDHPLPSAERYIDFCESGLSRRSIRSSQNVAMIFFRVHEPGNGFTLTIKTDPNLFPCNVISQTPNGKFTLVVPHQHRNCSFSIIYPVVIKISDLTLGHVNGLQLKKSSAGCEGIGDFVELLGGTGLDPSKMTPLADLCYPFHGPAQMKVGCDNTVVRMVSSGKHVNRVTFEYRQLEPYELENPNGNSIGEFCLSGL
The experiment in a line: Dose Response confirmation of uHTS hits for small molecule antagonists of the CRF-binding protein and CRF-R2 receptor complex. Particulars: read-out: IC50_Mean. The format is functional.

Assay [10] deals with T2, Corticotropin-releasing factor receptor 2/Corticotropin-releasing factor-binding protein. The assay is described as follows: activators of CRF receptor 2 with binding protein – uHTS hits, confirmation (AID 602473). It counts as functional. The conditions noted are these: read-out: EC50_Mean.
The target of the next assay is Major prion protein (Homo sapiens, UniProt P04156). The format is functional, cell-based.
A short description of assay [11]: cells.
Assay [12] can be described thus: MITF Orthogonal Assay: SK-MEL-5 CTG Assay Measured in Cell-Based System Using Plate Reader - 2084-02_Inhibitor_Dose_DryPowder_Activity_Set7. It counts as functional.
A short description of assay [13]: MITF: Counter assay: A375 proliferation Measured in Cell-Based System Using Plate Reader - 2084-03_Inhibitor_Dose_DryPowder_Activity_Set8. It counts as functional. The conditions noted are these: A-375.
Assay [14] in a line: TRPM1 promoter luciferase reporter signal decrease, dose response, MITF inhibitor project, cell-based, SK-MEL-5, dry powder, set 8 (AID 624430). It counts as functional.
The subject of a further assay is HeLa. The assay is described as follows: HeLa cell cytotoxicity, dose response, cytotoxicity control, ATP luminescence, cherry-pick samples (AID 687004). It counts as functional, cell-based. The conditions noted are these: Homo sapiens.
In a further assay the test system is HEK293. The experiment in a line: HEK293T cell cytotoxicity, dose response, cytotoxicity control, ATP luminescence, cherry-pick samples (AID 687005).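 Note: cells exposed to compound for 48 hours.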 The format is functional, cell-based. The conditions noted are these: Homo sapiens.
Assay [15] in a line: HEK293 Cytotoxicity Assay Measured in Cell-Based System Using Plate Reader - 7071-01_Inhibitor_Dose_CherryPick_Activity_Set2. The format is functional.
The target of a further assay is Kallikrein-7 (Homo sapiens, UniProt P49862). The assay is described as follows: Fluorescence Intensity-based biochemical primary high throughput dose response assay to identify activators of kallikrein-7 (K7) zymogen.
The nature of assay [16]: growth suppression of PTEN-null colon cells, dose response, cell-based, HCT116 PTEN knockout (AID 1047).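 Note: HCT116 colon tumor cells with PTEN knocked out; cells exposed to compound for 60 hours before readout; potency for loss of cell viability measured by luminescence.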 The format is functional.
Assay [17] is described as follows: growth suppression of beta-catenin-knockout colon cells, dose response, cell-based, HCT116, human colon tumor (AID 1045).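 Note: HCT116 colon tumor cells with beta catenin knocked out; cells exposed to compound for 60 hours.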 The format is functional.
Assay [18] is described as follows: A Cell Based Secondary Assay To Explore Cytotoxicity of Compounds that Sensitize Mycobacterium Tuberculosis to Beta-Lactam Antibiotics. The format is functional.
Assay [19] has as its target T1, Oxysterols receptor LXR-beta. It counts as functional, cell-based. The source holds these as a separate data set.
The nature of assay [20]: cells. The source holds these as a separate data set.
The target of assay [21] is Luciferin 4-monooxygenase (Photinus pyralis, UniProt P08659). The experiment in a line: Counter Screen for Luciferase-based Assay Positives. [Related pubchem assays: 620, 618, 411 ].
For another assay, the system named is HT-1080. The experiment in a line: cytotoxicity in HT1080 fibrosarcoma cells, cell-based, fluorescence readout (AID 620). It counts as functional. The conditions noted are these: Homo sapiens.

The source made the active and inactive calls.

Consider `Cc1cc(O)ccc1Nc1cc(-c2cccc(N(C)C)c2)ncn1`, for which the EC50 in assay [1] is > 67.5 µM (inactive).
As to `Cc1cccnc1N1CCC(C(=O)N(CC2CC2)c2ccc(Cl)cc2)CC1`, the IC50 is 7.5 nM (active) in assay [2], 12.6 µM (inactive) at Vasopressin V1b receptor, 15.7 µM (inactive) at Vasopressin V2 receptor and 2.6 µM (active) in assay [3].
As to `O=C(NCCCn1ccnc1)c1cc(-c2ccccc2)on1`, the EC50 in the assay “cells [4]” was 8.67 µM (active); in “cells [5]” it was > 350 µM (not active); in assay [1], > 67.5 µM (inactive).
`C[C@@H]1CCCCO[C@@H](CN(C)Cc2ccc(C(F)(F)F)cc2)[C@H](C)CN([C@H](C)CO)C(=O)c2cc(NC(=O)Nc3ccccc3)ccc2O1`: the AC50 (in general, the concentration at which the activity in the assay is half-maximal) is 4.86 µM (active) on Paired box protein Pax-8, 57 µM (active) in assay [6], 28.1 µM (active) in assay [7] and 36 µM (active) in assay [8].
`COc1ccc2c(C)cc(SCc3c(C)noc3C)nc2c1`: the IC50 in [9] is > 47.1 µM (inactive); at Major prion protein it was 4.31 µM (active); in the assay “cells [11]”, > 138 µM (inactive). Besides, in [10], the EC50 was > 53 µM (inactive).
With `O=C1C=C(Nc2cc(Cl)cc(Cl)c2)C(=O)c2ccccc21`, the AC50 in [12] was 1.12 µM (active); in assay [13], 24 µM (active); in assay [14] it was 23.9 µM (active).
With `N#Cc1cccnc1N1CCN(C(=O)N(CC2CC2)c2ccc(Cl)cc2)CC1`, the IC50 is 80.6 nM (active) in assay [2], > 50 µM (inactive) on Vasopressin V1b receptor, > 50 µM (inactive) at Vasopressin V2 receptor and > 50 µM (inactive) in [3].
Turning to `Cc1noc(C)c1S(=O)(=O)N(C)C[C@H]1OCCCC[C@@H](C)Oc2ccc(NS(=O)(=O)c3ccc(Cl)cc3)cc2C(=O)N([C@@H](C)CO)C[C@H]1C`, the AC50 at Paired box protein Pax-8 was 10.9 µM (active); in assay [6] it was < 0.26 µM (active).
`C[C@@H]1CN([C@H](C)CO)C(=O)c2cc(NC(=O)Cc3ccccc3)ccc2O[C@@H](C)CCCCO[C@@H]1CN(C)Cc1ccc(C(F)(F)F)cc1`: the values for the AC50 (on Paired box protein Pax-8; in [7]; in assay [8]) were 7.22 µM (active), 17.5 µM (active) and 43.2 µM (active), respectively.
With `C[C@@H]1CN([C@@H](C)CO)C(=O)c2cc(NS(=O)(=O)c3ccc(F)cc3)ccc2O[C@@H](C)CCCCO[C@H]1CN(C)S(=O)(=O)c1ccc(F)cc1`, the AC50 in the assay on HeLa was > 52 µM (inactive); in the assay on HEK293, 22.5 µM (active); in assay [15], 22.5 µM (active).
With `Cc1cccc(C(=O)/N=c2/c(C#N)cc3c(=O)n4cccc(C)c4nc3n2Cc2ccco2)c1`, the EC50 on Kallikrein-7 is 65.6 µM (inactive).
As to `C=CCn1/c(=N/C(=O)c2ccc(S(=O)(=O)N3CCc4ccccc4C3)cc2)sc2cc(S(N)(=O)=O)ccc21`, the EC50 in assay [16] is 5.77 µM (active); in [17], 4.56 µM (active); at Kallikrein-7, > 69.5 µM (inactive).
`Nc1c2c(nc3sc4c(c13)CCCC4)-c1ccccc1CC2`: in [18], the CC50 (as a rule, the concentration that lowers cell viability or growth by half) is > 40 µM (active). Also, the EC50 (in [19]; in the assay “cells [20]”) was > 67.5 µM (inactive) in each case.
As for `Cc1ccc(-c2nc3cc(C)ccc3o2)cc1`, the EC50 is 1.59 µM (active) in [21], > 50 µM (not active) with HT-1080, > 67.5 µM (inactive) in assay [19] and > 67.5 µM (inactive) in “cells [20]”.
On to `O=C1C(Nc2ccc(I)cc2)=C(N2CCCCC2)C(=O)c2ccccc21`, for which the AC50 was 15.9 µM (active) in assay [12], > 70 µM (inactive) in [13] and 9.62 µM (active) in assay [14].
